The nature of this series: Human HepG2 cell viability assay in 384 well format. The class given is toxicity, cell-based. Also on record: dose 125 nL, time 70.5 hour; cytotoxicity at 70.5 h: concentration not given beside the values. The settings on record: HepG2 cells, read-out: Inhibition.

As for `O=C(N[C@H]1CC[C@@]2(CCC(=O)N2CC2CC2)CC1)c1cnccn1`, the cytotoxicity at 70.5 h was -11%.
With `COCCN1C(=O)CC[C@]12CC[C@@H](NC(=O)c1cnccn1)CC2`, the cytotoxicity at 70.5 h was -2.82%.
In the case of `Cc1cc(C(=O)N2CC[C@@H]3CN(C)S(=O)(=O)[C@@H]3CC2)no1`, the cytotoxicity at 70.5 h was -7.25%.
In the case of `CC(C)CN1C[C@H]2CCN(C(=O)c3ccccn3)CC[C@H]2S1(=O)=O`, the cytotoxicity at 70.5 h is -4.38%.
Regarding `CCC(=O)N1CCC2(CC1)CC(CC(=O)NC1CC1)c1ccccc1O2` (stereo not given), the cytotoxicity at 70.5 h was 5.58%.
Consider `O=C(NC1CC1)N1C[C@H]2CN(c3ccccc3)C(=O)[C@H]2C1`, for which the cytotoxicity at 70.5 h amounted to 4.91%.
`CCc1cnc(N2CCC3(CCN(Cc4cccc(C)c4)C3=O)C2)nc1` (stereo not given): the cytotoxicity at 70.5 h came to 1.75%.
With `CO[C@@H]1CCN(C(=O)c2cc(C)on2)C[C@@H]1Cc1ccccc1`, the cytotoxicity at 70.5 h amounted to 20.3%.
On to `O=C1CCC2(CCN(Cc3ccsc3)CC2)N1Cc1ccccc1`, for which the cytotoxicity at 70.5 h was -10.3%.
Take `O=C1[C@H]2CN(C(=O)[C@H]3CCCO3)C[C@H]2CN1CC1CC1`: the cytotoxicity at 70.5 h is -5.67%.
On to `O=C(CCO)N1C[C@H]2CN(c3ccccc3)C(=O)[C@H]2C1`, for which the cytotoxicity at 70.5 h is -8.23%.
As for `O=C(NCCc1ccccn1)[C@@]12CCO[C@@H]1CCN(CC1CC1)C2`, the cytotoxicity at 70.5 h was -5.28%.
With `COc1ccc(C[C@H]2CN(C(=O)c3cscn3)CC[C@@H]2OC)cc1`, the cytotoxicity at 70.5 h was 49.9%.
`O=C(c1ccoc1)N1CCC2(CC1)C(=O)N(CC1CC1)c1ccccc12`: the cytotoxicity at 70.5 h was -2.01%.
As for `O=C([C@H]1CCCO1)N1CCC2(CC1)C(=O)N(CC1CC1)c1ccccc12`, the cytotoxicity at 70.5 h is -1.06%.
For the molecule `CC(=O)N1CCC2(C1)C(=O)N(CC1CC1)c1ccccc12` (stereo not given), the cytotoxicity at 70.5 h is -8.89%.
Take `Cc1cccc(CN2CCc3nnc(CN(C)C)n3CC2)n1`: the cytotoxicity at 70.5 h was -10.7%.
Then `O=C([C@@H]1CCO[C@@H]2CCN(Cc3ccco3)C[C@H]21)N1CCCCO1`, with -9.33%.
For `CN(C)C(=O)[C@@H]1CCO[C@@H]2CCN(c3ncccn3)C[C@H]21`, the cytotoxicity at 70.5 h was -15.3%.
Take `COCC1CN(Cc2c(C)noc2C)Cc2cn(C)nc21` (stereo not given): the cytotoxicity at 70.5 h is 10.9%.
Regarding `CNC(=O)c1nc2c(s1)CCN(C(=O)c1cccc(OC)c1)CC2`, the cytotoxicity at 70.5 h is -10%.
In the case of `Cc1nc(CN2CCOC3(CCCN(c4nccs4)C3)C2)cs1` (stereo not given), the cytotoxicity at 70.5 h worked out at 4.12%.
For the molecule `CC(=O)NCC(=O)N1Cc2ccnn2CC(COCCN(C)C)C1` (stereo not given), the cytotoxicity at 70.5 h is -6.24%.
For `Cc1ccc(C(=O)N2CCC3(CC2)CC(c2ccccc2)C(=O)N3)o1` (stereo not given), the cytotoxicity at 70.5 h is -5.53%.
Then `c1ccc(CN2CCOC3(CCCN(c4nccs4)C3)C2)cc1` (stereo not given), with -7.62%.
Regarding `Cn1cc(CN2CCN3C[C@H](Oc4cccnc4)C[C@H]3C2)cn1`, the cytotoxicity at 70.5 h was -1.85%.
As to `Cn1cccc1C(=O)N1CC[C@H]2[C@H](CO[C@H]2CNS(C)(=O)=O)C1`, the cytotoxicity at 70.5 h was -4.35%.
Take `Cc1oncc1C(=O)N1CC[C@H]2[C@H](CO[C@@H]2CNS(C)(=O)=O)C1`: the cytotoxicity at 70.5 h was -5.2%.
Then `CS(=O)(=O)NC[C@@H]1OC[C@H]2CN(C(=O)c3ccccc3)CC[C@H]21`, with 15.9%; and `O=C1CCCN1Cc1ncn2c1CN(S(=O)(=O)c1cccs1)CCC2`, with -1.28%.
Then `CN(C)CCN1CCOCC2(CCCN(C(=O)c3cccc(O)c3)C2)C1` (stereo not given), with -2.03%.
As to `Cc1occc1C(=O)N1CC[C@@H]2[C@@H](CO[C@H]2CNS(C)(=O)=O)C1`, the cytotoxicity at 70.5 h was -1.5%.
For `O=C(NC1CC1)[C@@H]1CCO[C@@H]2CCN(C3CCCC3)C[C@H]21`, the cytotoxicity at 70.5 h is -0.698%.
With `O=C1N(Cc2ccc(Cl)cc2)CCC12CCCNC2` (stereo not given), the cytotoxicity at 70.5 h is -12.9%.
For `O=C1N(Cc2cccc(Cl)c2)CCC12CCCNC2` (stereo not given), the cytotoxicity at 70.5 h is -12.1%.
Consider `CC(C)NC(=O)N1CCc2c(CNc3ncccn3)cncc2C1`, for which the cytotoxicity at 70.5 h was -3.35%.
For `CNC(=O)N1CC[C@H]2N(C)CC[C@@]2(C(=O)N2CCOCC2)CC1`, the cytotoxicity at 70.5 h was -4.42%.
Then `O=C(CC1CCCC1)N1CCC2(CCN2Cc2ccc(F)cc2)C1` (stereo not given), with 1.62%.
`O=C1Nc2ccccc2C12CCN(Cc1nccs1)CC2`: the cytotoxicity at 70.5 h is -1.05%.
Then `COc1ccc(C[C@H]2CNCC[C@H]2OC)cc1`, with -6.44%; and `CCN1C[C@H]2[C@@H](C1)N(C(=O)Cc1ccsc1)CC[C@H]2OC`, with -7.9%; and `CS(=O)(=O)N1CC2(CCN(C(=O)c3ccncc3)CC2)c2ccccc21`, with -6.91%.
Then `COCCN1CCC2(CC1)CC(NC(=O)COC)c1ccccc1O2` (stereo not given), with -7.59%.
On to `CC(C)NC(=O)N1CCC2(CCC(=O)N2CCN2CCCC2)CC1`, for which the cytotoxicity at 70.5 h is -9.28%.
Consider `Cc1cccc(CN2CC[C@H]3[C@@H]2CC(=O)N3CC2CC2)n1`, for which the cytotoxicity at 70.5 h was -9.45%.
For `COCCN1CCC2(CC1)CC(NC(=O)C(C)C)c1ccccc1O2` (stereo not given), the cytotoxicity at 70.5 h was -4.05%.
Consider `Cc1cnc(N2CCC3(CCCN3C(=O)c3ccco3)CC2)nc1`, for which the cytotoxicity at 70.5 h was -2.74%.
Turning to `Cc1cccc(CN2CCC3(CCN(c4ncccn4)CC3)C2=O)c1`, the cytotoxicity at 70.5 h turned out to be 1.2%.
Take `CN(C)CC(=O)N1CC2(CCN(C(=O)Nc3ccccc3)C2)C1`: the cytotoxicity at 70.5 h was 22.9%.
For `O=C(c1ccco1)N1CCCC12CCN(c1ncccn1)CC2`, the cytotoxicity at 70.5 h is -7.14%.
As for `COc1ccc(C[C@H]2CN(C(=O)c3ccc(C)nc3)CC[C@@H]2OC)cc1`, the cytotoxicity at 70.5 h is -2.92%.
With `COCCN1CCCC2(CCC(=O)N2Cc2cccnc2)C1` (stereo not given), the cytotoxicity at 70.5 h was found to be 28.9%.
Take `Cc1cccc(CN2C[C@@H]3CN(C(=O)c4cnccn4)C[C@@H]3C2=O)n1`: the cytotoxicity at 70.5 h is -0.986%.
Regarding `Cc1cccc(CN2CCCn3c(nnc3CN3CCCC3=O)C2)n1`, the cytotoxicity at 70.5 h is -9.11%.
As for `COc1ccc(CN2CCC3(CC2)CCN(CC(=O)N(C)C)C3=O)cc1`, the cytotoxicity at 70.5 h was -16.7%.
Then `O=C(O)[C@]12CCCN(Cc3cccs3)C[C@H]1CN(c1ncccn1)C2`, with -9.42%; and `Cc1ccc(CN2CCO[C@@H]3C[C@@H](C(=O)NC(C)C)C[C@H]32)o1`, with -8.04%; and `CC(C)NC(=O)[C@H]1C[C@@H]2[C@@H](C1)OCCN2Cc1ccco1`, with -8.12%.
Take `COc1ccc(CN2CCO[C@@H]3C[C@@H](C(=O)NC(C)C)C[C@H]32)cc1`: the cytotoxicity at 70.5 h was -5.46%.
Turning to `O=C(O)[C@]12CCCN(Cc3ccoc3)C[C@H]1CN(c1ncccn1)C2`, the cytotoxicity at 70.5 h is -6.33%.
In the case of `O=C1NC(c2ccccc2)=N[C@@]12CC[C@@H]1CN(CC3CC3)C[C@@H]12`, the cytotoxicity at 70.5 h is -10.6%.
As to `Cc1ccc(CN2CCc3ncnc(OC(C)C)c3CC2)s1`, the cytotoxicity at 70.5 h is -6.82%.
On to `CC(C)NC(=O)[C@H]1C[C@@H]2[C@@H](C1)OCCN2Cc1nccs1`, for which the cytotoxicity at 70.5 h is -4.27%.
`O=C(C1=CCCC1)N1CCC[C@]2(C[C@@H](OCc3ccccn3)CO2)C1`: the cytotoxicity at 70.5 h is -15.2%.
For the molecule `COc1ccc(CN2CCn3cc(CNC(=O)C4CCC4)nc3C2)cc1`, the cytotoxicity at 70.5 h stood at 7.38%.
`Cn1nnc2c1CCN(C(=O)C1CC1)C2COCCN1CCCC1` (stereo not given): the cytotoxicity at 70.5 h is -3.87%.
As for `Cc1ccc(CN2CCn3c(CNC(=O)c4cccn4C)cnc3C2)s1`, the cytotoxicity at 70.5 h is -10.3%.
As to `Cc1noc(C)c1CN1CCCC2(C1)CN(c1nccs1)CCO2` (stereo not given), the cytotoxicity at 70.5 h is -2.38%.
For `Cc1ccc(CN2C[C@@H]3CCCO[C@@H]3[C@H](NS(C)(=O)=O)C2)o1`, the cytotoxicity at 70.5 h was -9.45%.
For `Cc1noc(C)c1CN1CCOC2(CCCN(c3nncs3)C2)C1` (stereo not given), the cytotoxicity at 70.5 h is -4.97%.
For the molecule `Cc1noc(C)c1CN1CCOC2(CCCN(c3ncccn3)C2)C1` (stereo not given), the cytotoxicity at 70.5 h is -5.7%.
Then `CC(=O)N1CC(=O)N(c2ccsc2)CC12CCN(Cc1ccccn1)C2` (stereo not given), with -6.8%; and `Cc1noc(C)c1CN1C[C@@H]2CCCO[C@@H]2[C@H](NS(C)(=O)=O)C1`, with -9.8%.
Turning to `O=C(c1ccoc1)N1CCO[C@]2(CCC[C@@H]2COCc2cccnc2)C1`, the cytotoxicity at 70.5 h is -1.92%.
In the case of `COCC1CC2(CCN(Cc3nccn3C)CC2)CN1c1ncccn1` (stereo not given), the cytotoxicity at 70.5 h is -0.457%.
`CN1CCOCC2(CCCN(C(=O)c3cn(C)cn3)C2)C1` (stereo not given): the cytotoxicity at 70.5 h was found to be 0.515%.
For the molecule `COC[C@H]1CNC(=O)[C@@H]2CCN(Cc3ccc(F)cc3)CC[C@H]12`, the cytotoxicity at 70.5 h was -1.94%.
Then `O=C(c1n[nH]c2c1CN(C1CCOCC1)CC2)N1CCCC1`, with -6.32%; and `O=C(NCCc1ccccn1)[C@@]12CCO[C@@H]1CCN(C1CCC1)C2`, with -6.9%; and `CN(C)C1COC2(CCN(Cc3ccc4c(c3)OCO4)CC2)C1` (stereo not given), with 2.59%.
With `Cc1cccc(CN2CCc3nnc(CN4CCCCC4)n3CC2)n1`, the cytotoxicity at 70.5 h is -5.9%.
Take `Cc1ccc(CN2CCCC3(COCCN(Cc4c[nH]nn4)C3)C2)s1` (stereo not given): the cytotoxicity at 70.5 h was determined as 19.3%.
With `COCC(=O)N1Cc2ccnn2CC(COCCN(C)C)C1` (stereo not given), the cytotoxicity at 70.5 h was -3.25%.
Consider `Cn1cc(CN2CCCC3(COCCN(Cc4c[nH]nn4)C3)C2)cn1` (stereo not given), for which the cytotoxicity at 70.5 h was 0.634%.
In the case of `CC(=O)N1C[C@H]2CCCC(N3CCN(c4ncccn4)CC3)[C@H]2C1` (stereo not given in full), the cytotoxicity at 70.5 h stood at 11.4%.
Then `CN(C)CCN1CCOCC2(CCCN(C(=O)c3cccn3C)C2)C1` (stereo not given), with 0.0252%; and `CN(C)CCN1CCOCC2(CCCN(C(=O)c3ccccc3)C2)C1` (stereo not given), with -2.82%; and `Cc1ccc(O[C@@H]2C[C@H]3CN(Cc4nccn4C)CCN3C2)cc1`, with -4.55%.
As for `O=C(CC1CC1)N[C@@H]1CN(Cc2cccnc2)C[C@@H]2CCCO[C@@H]21`, the cytotoxicity at 70.5 h was -4.07%.
Regarding `c1cncc(C[C@H]2[C@H](N3CCOCC3)CCN2Cc2cccs2)c1`, the cytotoxicity at 70.5 h is -5.01%.
